The subject of this test is HCV 1b-Con1 replicon. The experiment in a line: HCV 1b-Con1 replicon assay in the presence of 5% FBS. Conditions: Hepatitis C virus. The format is cell-based. In general terms: In antiviral work, replicon cells carry a viral genome segment that copies itself.

The EC50 is the concentration giving half of the maximal effect. For `COC(=O)N[C@H](C(=O)N1CCC[C@H]1c1nc2cc([C@@H]3CC[C@@H](c4ccc5[nH]c([C@@H]6CCCN6C(=O)[C@@H](NC(=O)OC)C(C)C)nc5c4)N3c3ccc(N4CCCCC4)c(F)c3)ccc2[nH]1)C(C)C` [Example 3.15, methyl {(2S)-1-[(2S)-2-{5-[(2S,55)-1-[3-fluoro-4-(piperidin-1-yl)phenyl]-5-{2-[(2S)-1-{(2S)-2-[(methoxycarbonyl)amino]-3-methylbutanoyl}pyrrolidin-2-yl]-1H-benzimidazol-5-yl}pyrrolidin-2-yl]-1H-benzimidazol-2-yl}pyrrolidin-1-yl]-3-methyl-1-oxobutan-2-yl}carbamate], the EC50 was less than 0.1 nM.
`COC(=O)N[C@H](C(=O)N1CCC[C@H]1c1nc2cc([C@@H]3CC[C@@H](c4ccc5[nH]c([C@@H]6CCCN6C(=O)[C@@H](NC(=O)OC)[C@@H](C)OC)nc5c4)N3c3ccc(N4CCCCC4)c(F)c3)ccc2[nH]1)[C@@H](C)OC` [Example 3.16, methyl {(2S,3R)-1-[(2S)-2-{5-[(2S,5S)-1-[3-fluoro-4-(piperidin-1-yl)phenyl]-5-(2-{(2S)-1-[N-(methoxycarbonyl)-O-methyl-L-threonyl]pyrrolidin-2-yl}-1H-benzimidazol-5-yl)pyrrolidin-2-yl]-1H-benzimidazol-2-yl}pyrrolidin-1-yl]-3-methoxy-1-oxobutan-2-yl}carbamate]: the EC50 lay within 0.1 to 1 nM.
For the molecule `COC(=O)NC(C(=O)N1CCC[C@H]1c1nc2cc([C@@H]3CC[C@@H](c4ccc5[nH]c([C@@H]6CCCN6C(=O)C(NC(=O)OC)=C(C)C)nc5c4)N3c3ccc(C(C)(C)C)cc3)ccc2[nH]1)=C(C)C` [Example 3.17, dimethyl {[(2S,5S)-1-(4-tert-butylphenyl)pyrrolidine-2,5-diyl]bis[1H-benzimidazole-5,2-diyl(2S)pyrrolidine-2,1-diyl(3-methyl-1-oxobut-2-ene-1,2-diyl)]}biscarbamate], the EC50 is less than 0.1 nM.
With `COC(=O)N[C@H](C(=O)N1CCC[C@H]1c1nc2cc([C@H]3CC[C@H](c4ccc5[nH]c([C@@H]6CCCN6C(=O)[C@@H](NC(=O)OC)C6CCOCC6)nc5c4)N3c3cc(F)c(N4CCCCC4)c(F)c3)ccc2[nH]1)C1CCOCC1` [Example 3.18, dimethyl ({(2R,5R)-1-[3,5-difluoro-4-(piperidin-1-yl)phenyl]pyrrolidine-2,5-diyl}bis{1H-benzimidazole-5,2-diyl(2S)pyrrolidine-2,1-diyl [(1S)-2-oxo-1-(tetrahydro-2H-pyran-4-yl)ethane-2,1-diyl]})biscarbamate] the figure was less than 0.1 nM; with `COC(=O)N[C@H](C(=O)N1C2CCC(C2)[C@H]1c1nc2cc([C@H]3CC[C@H](c4ccc5[nH]c([C@@H]6C7CCC(C7)N6C(=O)[C@@H](NC(=O)OC)C(C)C)nc5c4)N3c3cc(F)c(N4CCCCC4)c(F)c3)ccc2[nH]1)C(C)C` [Example 3.19, methyl {(2S)-1-[(3S)-3-{5-[(2R,5R)-1-[3,5-difluoro-4-(piperidin-1-yl)phenyl]-5-{2-[(3S)-2-{(2S)-2-[(methoxycarbonyl)amino]-3-methylbutanoyl}-2-azabicyclo[2.2.1]hept-3-yl]-1H-benzimidazol-5-yl}pyrrolidin-2-yl]-1H-benzimidazol-2-yl}-2-azabicyclo[2.2.1]hept-2-yl]-3-methyl-1-oxobutan-2-yl}carbamate], less than 0.1 nM.
Turning to `COC(=O)N[C@H](C(=O)N1CCC[C@H]1c1nc2cc([C@H]3CC[C@H](c4ccc5[nH]c([C@@H]6CCCN6C(=O)[C@@H](NC(=O)OC)C6CCOCC6)nc5c4)N3c3ccc(N4CCC(c5ccccc5)CC4)c(F)c3)ccc2[nH]1)C(C)C` [Example 3.21, methyl [(1S)-2-[(2S)-2-{5-[(2R,5R)-1-[3-fluoro-4-(4-phenylpiperidin-1-yl)phenyl]-5-{2-[(2S)-1-{(2S)-2-[(methoxycarbonyl)amino]-3-methylbutanoyl}pyrrolidin-2-yl]-1H-benzimidazol-5-yl}pyrrolidin-2-yl]-1H-benzimidazol-2-yl}pyrrolidin-1-yl]-2-oxo-1-(tetrahydro-2H-pyran-4-yl)ethyl]carbamate], the EC50 is less than 0.1 nM.
Next, `COC(=O)N[C@H](C(=O)N1CCC[C@H]1c1nc2cc([C@H]3CC[C@H](c4ccc5[nH]c([C@@H]6CCCN6C(=O)[C@@H](NC(=O)OC)C6CCCCC6)nc5c4)N3c3cc(F)c(N4CCC(c5ccccc5)CC4)c(F)c3)ccc2[nH]1)C1CCCCC1` [Example 3.22, dimethyl ({(2R,5R)-1-[3,5-difluoro-4-(4-phenylpiperidin-1-yl)phenyl]pyrrolidine-2,5-diyl}bis{1H-benzimidazole-5,2-diyl(2S)pyrrolidine-2,1-diyl [(1S)-1-cyclohexyl-2-oxoethane-2,1-diyl]})biscarbamate]: less than 0.1 nM; `COC(=O)N[C@H](C(=O)N1CCC[C@H]1c1nc2cc([C@H]3CC[C@H](c4ccc5[nH]c([C@@H]6CCCN6C(=O)[C@@H](NC(=O)OC)C6CCOCC6)nc5c4)N3c3cc(F)c(N4CCC(c5ccccc5)CC4)c(F)c3)ccc2[nH]1)C1CCOCC1` [Example 3.23, dimethyl ({(2R,5R)-1-[3,5-difluoro-4-(4-phenylpiperidin-1-yl)phenyl]pyrrolidine-2,5-diyl}bis{1H-benzimidazole-5,2-diyl(2S)pyrrolidine-2,1-diyl [(1S)-2-oxo-1-(tetrahydro-2H-pyran-4-yl)ethane-2,1-diyl]})biscarbamate]: less than 0.1 nM.
In the case of `COC(=O)N[C@H](C(=O)N1CCC[C@H]1c1nc2cc([C@H]3CC[C@H](c4ccc5[nH]c([C@@H]6CCCN6C(=O)[C@@H](NC(=O)OC)C6CCCC6)nc5c4)N3c3cc(F)c(N4CCC(c5ccccc5)CC4)c(F)c3)ccc2[nH]1)C1CCCC1` [Example 3.24, dimethyl ({(2R,5R)-1-[3,5-difluoro-4-(4-phenylpiperidin-1-yl)phenyl]pyrrolidine-2,5-diyl}bis{1H-benzimidazole-5,2-diyl(2S)pyrrolidine-2,1-diyl[(1S)-1-cyclopentyl-2-oxoethane-2,1-diyl]})biscarbamate], the concentration for a half-maximal effect (EC50) is less than 0.1 nM.
In the case of `COC(=O)N[C@@H](C(=O)N1c2ccccc2C[C@H]1c1nc2cc([C@H]3CC[C@H](c4ccc5[nH]c([C@@H]6Cc7ccccc7N6C(=O)[C@H](NC(=O)OC)C(C)C)nc5c4)N3c3cc(F)c(N4CCCCC4)c(F)c3)ccc2[nH]1)C(C)C` [Example 3.25, methyl {(2R)-1-[(2S)-2-{5-[(2R,5R)-1-[3,5-difluoro-4-(piperidin-1-yl)phenyl]-5-{2-[(2S)-1-{(2R)-2-[(methoxycarbonyl)amino]-3-methylbutanoyl}-2,3-dihydro-1H-indol-2-yl]-1H-benzimidazol-5-yl}pyrrolidin-2-yl]-1H-benzimidazol-2-yl}-2,3-dihydro-1H-indol-1-yl]-3-methyl-1-oxobutan-2-yl}carbamate], the EC50 is less than 0.1 nM.
Regarding `C=C1C[C@@H](c2nc3cc([C@H]4CC[C@H](c5ccc6[nH]c([C@@H]7CC(=C)CN7C(=O)[C@@H](NC(=O)OC)C(C)C)nc6c5)N4c4ccc(C(C)(C)C)cc4)ccc3[nH]2)N(C(=O)[C@@H](NC(=O)OC)C(C)C)C1` [Example 3.26, methyl {(2S)-1-[(2S)-2-{5-[(2R,5R)-1-(4-tert-butylphenyl)-5-{2-[(2S)-1-{(2S)-2-[(methoxycarbonyl)amino]-3-methylbutanoyl}-4-methylidenepyrrolidin-2-yl]-1H-benzimidazol-5-yl}pyrrolidin-2-yl]-1H-benzimidazol-2-yl}-4-methylidenepyrrolidin-1-yl]-3-methyl-1-oxobutan-2-yl}carbamate], the half-maximal effective concentration (EC50) is less than 0.1 nM.

(Values after patent publication US20120220562A1, “Anti-Viral Compounds” (ABBOTT LABAORATORIES, priority 2011, published 2012).)
